Converted amounts (≈) assume the structure as drawn.
Columns and labels:
[1] = test system: Enterococcus faecalis; assay: Antimicrobial activity against Enterococcus faecalis expressing rRNA methylase gene erm(A) obtained from pig manure by broth microdilution method; format: functional
[2] = test system: Enterococcus faecalis; assay: Antimicrobial activity against Enterococcus faecalis expressing rRNA methylase gene erm(A) obtained from human by broth microdilution method; format: functional

| Compound | MIC [1] [µg/mL] | MIC [2] [µg/mL] |
| --- | --- | --- |
| CC[C@H]1OC(=O)[C@H](C)[C@@H](O[C@H]2C[C@@](C)(OC)[C@@H](O)[C@H](C)O2)[C@H](C)[C@@H](O[C@@H]2O[C@H](C)C[C@H](N(C)C)[C@H]2O)[C@](C)(O)C[C@@H](C)C(=O)[C@H](C)[C@@H](O)[C@]1(C)O [ERYTHROMYCIN] | > 8 | 1 (≈ 1.36 µM) |
| CN(C)[C@@H]1C(O)=C(C(N)=O)C(=O)[C@@]2(O)C(O)=C3C(=O)c4c(O)cccc4[C@@](C)(O)[C@H]3C[C@@H]12 [TETRACYCLINE] | > 4 | > 4 |
